Results from PubChem BioAssay AID1963445 (Molecular Pharmacology Branch, DTP, NCI, 2024).

Test system: MCF7 complex spheroid growth, % test/control
Assay: Anticancer human tumor MCF7 cell line growth inhibition [Asc];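 note: spheroids exposed to compounds for 7 days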;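 for viability, T/C: 100% = DMSO vehicle control wells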
Details: for IC50: curve of first compound; for viability, T/C: stronger effect = lower value; active = viability on the fitted dose curve at most 10% of control; inactive = the rest
Procedure, shortened: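 Spheroid model: tumor line + HUVEC + hMSC. Single agents and combinations; top conc. at/near clinical Cmax (10 microM if undetermined), half-log dilutions. DMSO stocks at 800-fold test concentration.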

NC1CCC(NC2CC2c2ccccc2)CC1 (configuration not stated) + Cc1c(S(C)(=O)=O)c(-c2cc(F)cc(N3CCN(c4ccc(NS(=O)(=O)c5ccc(NC(CCN6CCC(C(=O)OCCCP(=O)(O)O)CC6)CSc6ccccc6)c(S(=O)(=O)C(F)(F)F)c5)cc4)CC3)c2)c(-c2ccc(Cl)cc2)n1C(C)C
> 100 nM: IC50 (second compound 0.0316 µM) | IC50 (second compound 0.1 µM) | IC50 (second compound 0.316 µM) | IC50 (second compound 1 µM) | IC50 (second compound 3.16 µM) | IC50 (second compound 10 µM)
inactive: viability, T/C (second compound 0.0316 µM, first compound 0.000316 µM) 120% | viability, T/C (second compound 0.0316 µM, first compound 0.001 µM) 93.7% | viability, T/C (second compound 0.0316 µM, first compound 0.00316 µM) 93.3% | viability, T/C (second compound 0.0316 µM, first compound 0.01 µM) 103% | viability, T/C (second compound 0.0316 µM, first compound 0.0316 µM) 99.9% | viability, T/C (second compound 0.0316 µM, first compound 0.1 µM) 106% | viability, T/C (second compound 0.1 µM, first compound 0.000316 µM) 96.7% | viability, T/C (second compound 0.1 µM, first compound 0.001 µM) 106% | viability, T/C (second compound 0.1 µM, first compound 0.00316 µM) 96.3% | viability, T/C (second compound 0.1 µM, first compound 0.01 µM) 115% | viability, T/C (second compound 0.1 µM, first compound 0.0316 µM) 115% | viability, T/C (second compound 0.1 µM, first compound 0.1 µM) 97.1% | viability, T/C (second compound 0.316 µM, first compound 0.000316 µM) 95.4% | viability, T/C (second compound 0.316 µM, first compound 0.001 µM) 87.7% | viability, T/C (second compound 0.316 µM, first compound 0.00316 µM) 113% | viability, T/C (second compound 0.316 µM, first compound 0.01 µM) 97.1% | viability, T/C (second compound 0.316 µM, first compound 0.0316 µM) 91.7% | viability, T/C (second compound 0.316 µM, first compound 0.1 µM) 100% | viability, T/C (second compound 1 µM, first compound 0.000316 µM) 85.4% | viability, T/C (second compound 1 µM, first compound 0.001 µM) 82.6% | viability, T/C (second compound 1 µM, first compound 0.00316 µM) 95% | viability, T/C (second compound 1 µM, first compound 0.01 µM) 84.5% | viability, T/C (second compound 1 µM, first compound 0.0316 µM) 102% | viability, T/C (second compound 1 µM, first compound 0.1 µM) 92.9% | viability, T/C (second compound 3.16 µM, first compound 0.000316 µM) 96.8% | viability, T/C (second compound 3.16 µM, first compound 0.001 µM) 83.8% | viability, T/C (second compound 3.16 µM, first compound 0.00316 µM) 87.5% | viability, T/C (second compound 3.16 µM, first compound 0.01 µM) 98.6% | viability, T/C (second compound 3.16 µM, first compound 0.0316 µM) 83.5% | viability, T/C (second compound 3.16 µM, first compound 0.1 µM) 127% | viability, T/C (second compound 10 µM, first compound 0.000316 µM) 150% | viability, T/C (second compound 10 µM, first compound 0.001 µM) 195% | viability, T/C (second compound 10 µM, first compound 0.00316 µM) 149% | viability, T/C (second compound 10 µM, first compound 0.01 µM) 215% | viability, T/C (second compound 10 µM, first compound 0.0316 µM) 186% | viability, T/C (second compound 10 µM, first compound 0.1 µM) 161%
